Test results reported in patent US12679878B2, “CRF2 receptor agonists and their use in therapy” (SANOFI, priority 2020, dated 2026).
In brackets after ≈: the same amount, converted by molar mass. Like-named read-outs stand apart in the source and are kept apart here. Starred links: 1 amine or outer side, 2 acyl side, 3 side chain; linkers in the order of their positions; H or OH if unused. Non-standard residues stand in square brackets, D forms with d. Residues, ends and D or L forms follow the SMILES beside them. Groups on a side chain read outwards from the residue. *: point of attachment. γGlu = O=C(O)[C@H](CCC(=O)[*:2])N[*:1]; Palmitoyl = CCCCCCCCCCCCCCCC(=O)*; Aib = CC(C)(N)C(=O)O

Experiments:
[1] = molecular target: T1, human CRF2α receptor (Homo sapiens, UniProt Q13324); assay: cAMP agonism at human CRF2 α receptor in TeloHEAC cells (Example 7); type: cell-based; conditions: cAMP HTRF, TeloHEAC cells stably expressing human CRF2 α
T1 construct: expressed in transfected cells; host or cells: TeloHEAC
T1 sequence (Q13324 1-411): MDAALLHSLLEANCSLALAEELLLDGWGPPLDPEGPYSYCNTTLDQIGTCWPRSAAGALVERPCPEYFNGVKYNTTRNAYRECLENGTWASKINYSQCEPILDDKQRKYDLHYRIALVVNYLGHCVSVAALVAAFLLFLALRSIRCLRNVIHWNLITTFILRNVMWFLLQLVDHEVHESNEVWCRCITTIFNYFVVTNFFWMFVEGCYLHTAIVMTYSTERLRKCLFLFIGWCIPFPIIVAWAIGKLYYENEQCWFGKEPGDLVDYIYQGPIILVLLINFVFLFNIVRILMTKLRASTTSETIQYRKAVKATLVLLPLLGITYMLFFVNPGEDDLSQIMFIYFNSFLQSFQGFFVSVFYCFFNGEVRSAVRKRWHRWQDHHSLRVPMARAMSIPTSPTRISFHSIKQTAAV
How it was run: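 Steps: thaw and wash cells; suspend in 1×HBSS, 20 mM HEPES, 0 or 0.1% HSA, 2 mM IBMX; add compound, 30 min RT; lyse with HTRF reagents, 1 h; read 665/620 nm. EC50 calculated, E% versus 1000 nM UCN2.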

[2] = Solubility in buffer systems by UPLC-UV (Example 13); type: physicochemical
Description: Prior to performing the solubility measurements, the purity of the compounds was determined through UPLC/MS. […] Therefore, solutions from solid samples were prepared in a buffer system with a concentration of 10 mg/mL compound based on the previously determined % purity.
UPLC-UV was performed after 1 hour of gentle agitation from the supernatant, which was obtained after 15 minutes of centrifugation at 2500 RCF (relative centrifugal acceleration). The solubility was determined by the comparison of the UV peak area of a 2 μL-injection of a buffered sample diluted 1:10 with a standard curve of a reference compound with known concentration. The different UV extinction coefficients of sample and reference compound were calculated based on the different amino acid sequences and considered in the concentration calculation.

[3] = molecular target: T2, CRF1R receptor (Homo sapiens, UniProt P34998); assay: cAMP activity at anti-target CRF1R, CRF1R-overexpression CHO cell line (Example 9); type: cell-based; conditions: CRF1R-overexpression CHO cell line
T2 construct: host or cells: CHO-K1 clone 2
T2 sequence (P34998 24-415): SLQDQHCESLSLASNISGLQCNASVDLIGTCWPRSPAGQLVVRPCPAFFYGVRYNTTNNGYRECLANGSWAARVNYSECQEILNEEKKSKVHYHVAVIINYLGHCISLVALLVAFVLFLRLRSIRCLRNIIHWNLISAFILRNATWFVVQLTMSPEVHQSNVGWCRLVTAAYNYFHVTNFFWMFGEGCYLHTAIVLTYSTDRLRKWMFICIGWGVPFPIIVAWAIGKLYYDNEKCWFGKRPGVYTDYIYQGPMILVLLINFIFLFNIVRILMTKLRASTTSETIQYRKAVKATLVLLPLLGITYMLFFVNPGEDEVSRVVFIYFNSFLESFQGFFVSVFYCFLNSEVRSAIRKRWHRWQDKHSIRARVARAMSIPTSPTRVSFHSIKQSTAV
How it was run: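 cAMP accumulation was read by HTRF after 30 min at room temperature of compound treatment. Cells were cryopreserved CHO cells overexpressing CRF1R, plated at 2000/well in IBMX (2 mM)-containing HBSS/HEPES buffer with 0 or 0.1% HSA. Activity was normalized to 1000 nM UCN2 as 100%.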

[4] = 0% HSA, read-out: EC50 [nM], 0% HSA
[5] = pH 4.5, Solubility in Buffer B [mg/ml]
[6] = pH 7.4, Solubility in Buffer C [mg/ml]

Compound | EC50 [1, 4] [nM] | EC50 ([1]; 0.1% HSA, read-out: EC50 [nM], 0.1% HSA) [nM] | solubility at 1 h [2, 5] [µg/mL] | EC50 ([3]; 0% HSA) [nM] | Emax ([3]; read-out: Emax (%)) [%] | solubility at 1 h [2, 6] [µg/mL] | solubility at 1 h ([2]; pH 4.5, Solubility in Buffer A [mg/ml]) [µg/mL]
CCCCCCCCCCCCCCCC(=O)N[C@@H](CCC(=O)NCCCC[C@H](NC(=O)[C@H](CC(C)C)NC(=O)[C@H](CCCCN)NC(=O)[C@@H](NC(=O)[C@@H]1CCCN1C(=O)[C@@H](NC(=O)[C@H](CC(=O)O)NC(=O)[C@H](CC(C)C)NC(=O)[C@H](CO)NC(=O)[C@H](CC(C)C)NC(=O)[C@@H](NC(=O)[C@@H](N)[C@@H](C)CC)C(C)C)C(C)C)[C@@H](C)CC)C(=O)N[C@@H](CCCCN)C(=O)N[C@H](C(=O)N[C@@H](CC(C)C)C(=O)N[C@@H](CC(C)C)C(=O)N[C@@H](CCC(=O)O)C(=O)N[C@@H](CCC(N)=O)C(=O)N[C@@H](CCC(=O)O)C(=O)N[C@@H](CCCCN)C(=O)N[C@@H](CCC(N)=O)C(=O)N[C@@H](CCC(=O)O)C(=O)N[C@@H](CCCCN)C(=O)N[C@@H](CCC(=O)O)C(=O)N[C@@H](CCCCN)C(=O)N[C@@H](CCC(N)=O)C(=O)N[C@@H](CCC(N)=O)C(=O)N[C@@H](C)C(=O)N[C@@H](CCC(=O)O)C(=O)N[C@H](C(=O)N[C@@H](CC(N)=O)C(=O)N[C@@H](C)C(=O)N[C@@H](CCC(N)=O)C(=O)N[C@H](C(=O)N[C@@H](CC(C)C)C(=O)N[C@@H](C)C(=O)N[C@@H](CCC(N)=O)C(=O)N[C@H](C(N)=O)C(C)C)[C@@H](C)CC)[C@@H](C)O)[C@@H](C)CC)C(=O)O [compound 2] (H-IVLSLDVPIKLK([γGlu-Palmitoyl])KILLEQEKQEKEKQQAETNAQILAQV-NH2; N-terminus assumed) | 0.01 | 0.01 | > 7600 |  |  |  | 
CCCCCCCCCCCCCCCC(=O)N[C@@H](CCC(=O)NCCCC[C@H](NC(=O)[C@H](CC(C)C)NC(=O)[C@H](CCCCN)NC(=O)[C@@H](NC(=O)[C@@H]1CCCN1C(=O)[C@@H](NC(=O)[C@H](CC(=O)O)NC(=O)[C@H](CC(C)C)NC(=O)[C@H](CO)NC(=O)[C@H](CC(C)C)NC(=O)[C@@H](NC(=O)[C@@H](N)[C@@H](C)CC)C(C)C)C(C)C)[C@@H](C)CC)C(=O)N[C@@H](CCCCN)C(=O)N[C@H](C(=O)N[C@@H](CC(C)C)C(=O)N[C@@H](CC(C)C)C(=O)N[C@@H](CCC(=O)O)C(=O)N[C@@H](CCC(N)=O)C(=O)N[C@@H](CCC(=O)O)C(=O)N[C@@H](CCCCN)C(=O)N[C@@H](CCC(N)=O)C(=O)N[C@@H](CCC(=O)O)C(=O)N[C@@H](CCCCN)C(=O)N[C@@H](CCC(=O)O)C(=O)N[C@@H](CCCCN)C(=O)N[C@@H](CCC(N)=O)C(=O)N[C@@H](CCC(N)=O)C(=O)N[C@@H](C)C(=O)N[C@@H](CCC(=O)O)C(=O)N[C@@H](CCCCN)C(=O)N[C@@H](CC(N)=O)C(=O)N[C@@H](C)C(=O)N[C@@H](CCC(N)=O)C(=O)N[C@H](C(=O)N[C@@H](CC(C)C)C(=O)N[C@@H](C)C(=O)N[C@@H](CCC(N)=O)C(=O)N[C@H](C(N)=O)C(C)C)[C@@H](C)CC)[C@@H](C)CC)C(=O)O [compound 3] (H-IVLSLDVPIKLK([γGlu-Palmitoyl])KILLEQEKQEKEKQQAEKNAQILAQV-NH2) | 0.01 |  | > 8800 |  |  |  | 
CCCCCCCCCCCCCCCC(=O)N[C@@H](CCC(=O)NCCCC[C@H](NC(=O)[C@@H](NC(=O)[C@H](CCCCN)NC(=O)[C@@H](NC(=O)[C@@H]1CCCN1C(=O)[C@@H](NC(=O)[C@H](CC(=O)O)NC(=O)[C@H](CC(C)C)NC(=O)[C@H](CO)NC(=O)[C@H](CC(C)C)NC(=O)[C@@H](NC(=O)[C@@H](N)Cc1ccccc1)[C@@H](C)O)C(C)C)[C@@H](C)O)[C@@H](C)CC)C(=O)N[C@@H](CCC(N)=O)C(=O)N[C@@H](CCCCN)C(=O)N[C@@H](CC(C)C)C(=O)N[C@@H](CC(C)C)C(=O)N[C@@H](CCCCN)C(=O)N[C@@H](CCC(N)=O)C(=O)N[C@@H](CCC(=O)O)C(=O)N[C@@H](CCCCN)C(=O)N[C@@H](CCC(N)=O)C(=O)N[C@@H](CCCCN)C(=O)N[C@@H](CCCCN)C(=O)N[C@@H](CCC(N)=O)C(=O)N[C@@H](CCCNC(=N)N)C(=O)N[C@@H](CCC(N)=O)C(=O)N[C@@H](CCCCN)C(=O)N[C@@H](C)C(=O)N[C@@H](CCCCN)C(=O)N[C@H](C(=O)N[C@@H](CC(N)=O)C(=O)N[C@@H](CCCCN)C(=O)N[C@@H](CCC(N)=O)C(=O)N[C@H](C(=O)N[C@@H](CC(C)C)C(=O)N[C@@H](CCC(=O)O)C(=O)N[C@@H](CCC(N)=O)C(=O)N[C@H](C(N)=O)C(C)C)[C@@H](C)CC)[C@@H](C)O)C(=O)O [compound 10] (H-FTLSLDVPTKIK([γGlu-Palmitoyl])QKLLKQEKQKKQRQKAKTNKQILEQV-NH2) |  |  |  | > 1000 | 10.2 | > 10000 | 
CCCCCCCCCCCCCCCC(=O)N[C@@H](CCC(=O)NCCCC[C@H](NC(=O)[C@H](CC(C)C)NC(=O)[C@H](CCCCN)NC(=O)[C@@H](NC(=O)[C@@H]1CCCN1C(=O)[C@H](NC(=O)[C@H](CC(=O)O)NC(=O)[C@H](CC(C)C)NC(=O)[C@H](CO)NC(=O)[C@H](CC(C)C)NC(=O)[C@@H](NC(=O)[C@@H](N)[C@@H](C)CC)C(C)C)C(C)C)[C@@H](C)O)C(=O)N[C@@H](CCC(N)=O)C(=O)N[C@@H](CCCCN)C(=O)N[C@@H](CC(C)C)C(=O)N[C@@H](CC(C)C)C(=O)N[C@@H](CCCCN)C(=O)N[C@@H](CCC(N)=O)C(=O)N[C@@H](CCC(=O)O)C(=O)N[C@@H](CCCNC(=N)N)C(=O)N[C@@H](CCC(N)=O)C(=O)N[C@@H](CCCNC(=N)N)C(=O)N[C@@H](CCCCN)C(=O)NC(C)(C)C(=O)N[C@@H](CCCNC(=N)N)C(=O)N[C@@H](CCC(=O)O)C(=O)N[C@@H](CCC(N)=O)C(=O)N[C@@H](C)C(=O)N[C@@H](CCC(=O)O)C(=O)N[C@@H](CCCCN)C(=O)N[C@@H](CC(N)=O)C(=O)N[C@@H](CCCCN)C(=O)N[C@@H](CCCNC(=N)N)C(=O)N[C@H](C(=O)N[C@@H](CC(C)C)C(=O)N[C@@H](CCC(=O)O)C(=O)N[C@@H](CCCNC(=N)N)C(=O)N[C@H](C(N)=O)C(C)C)[C@@H](C)CC)C(=O)O [compound 20] (H-IVLSLD[dV]PTKLK([γGlu-Palmitoyl])QKLLKQERQRK[Aib]REQAEKNKRILERV-NH2; N-terminus assumed) | 0.01 |  | > 9100 |  |  | 6800 (≈ 1370 µM) | > 9500
CCCCCCCCCCCCCCCC(=O)N[C@@H](CCC(=O)NCCCC[C@H](NC(=O)[C@H](CC(C)C)NC(=O)[C@H](CCCCN)NC(=O)[C@@H](NC(=O)[C@@H]1CCCN1C(=O)[C@H](NC(=O)[C@H](CC(=O)O)NC(=O)[C@H](CC(C)C)NC(=O)[C@H](CO)NC(=O)[C@H](CC(C)C)NC(=O)[C@@H](NC(=O)[C@@H](N)[C@@H](C)CC)C(C)C)C(C)C)[C@@H](C)O)C(=O)N[C@@H](CCC(N)=O)C(=O)N[C@@H](CCCCN)C(=O)N[C@@H](CC(C)C)C(=O)N[C@@H](CC(C)C)C(=O)N[C@@H](CCCCN)C(=O)N[C@@H](CCC(N)=O)C(=O)N[C@@H](CCC(=O)O)C(=O)N[C@@H](CCCNC(=N)N)C(=O)N[C@@H](CCC(N)=O)C(=O)N[C@@H](CCCNC(=N)N)C(=O)N[C@@H](CCCCN)C(=O)N[C@@H](CCC(=O)O)C(=O)N[C@@H](CCCNC(=N)N)C(=O)NC(C)(C)C(=O)N[C@@H](CCC(N)=O)C(=O)N[C@@H](C)C(=O)N[C@@H](CCC(=O)O)C(=O)N[C@@H](CCCCN)C(=O)N[C@@H](CC(N)=O)C(=O)N[C@@H](CCCCN)C(=O)N[C@@H](CCCNC(=N)N)C(=O)N[C@H](C(=O)N[C@@H](CC(C)C)C(=O)N[C@@H](CCC(=O)O)C(=O)N[C@@H](CCCNC(=N)N)C(=O)N[C@H](C(N)=O)C(C)C)[C@@H](C)CC)C(=O)O [compound 23] (H-IVLSLD[dV]PTKLK([γGlu-Palmitoyl])QKLLKQERQRKER[Aib]QAEKNKRILERV-NH2; N-terminus assumed) | 0.02 |  |  |  |  | 9100 (≈ 1830 µM) | 
